According to patent US12319655B2, “RAF kinase inhibitors and methods of use thereof” (Deciphera Pharmaceuticals, LLC, priority 2021, dated 2025):

Key:
[1] = biological target: A-Raf kinase (SEQ. ID No: 1) (Homo sapiens (Human), UniProt P10398, Y301D/Y302D); assay: Biochemical Assay for A-Raf (1); settings: Table J, biochemical assay (1); read-out: ARAF (1)
Procedure, shortened: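 A-Raf Y301D/Y302D at 5.55 nM phosphorylates 30.1 nM MEK with 1 mM ATP in pH 7.5 Tris buffer, 1% DMSO. Activity was read continuously as NADH oxidation at 340 nm in a pyruvate kinase/lactate dehydrogenase coupled system for 6 h at 30 °C. Rates from 4–5 h were converted to percent inhibition, and IC50 came from a four-parameter fit.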

[2] = biological target: C-Raf kinase (SEQ. ID NO: 3) (Homo sapiens (Human), UniProt P04049, Y340D/Y341D); assay: Biochemical Assay for C-Raf (1); settings: Table J, biochemical assay (1); read-out: CRAF (1)
Procedure, shortened: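 Coupled pyruvate kinase/LDH assay tracking NADH oxidation at 340 nm, with 0.43 nM C-Raf, 30.1 nM MEK and 1 mM ATP in pH 7.5 Tris buffer (15 mM MgCl2, 1% DMSO final). Read continuously for 6 h at 30 °C, rate taken from the 4–5 h window. IC50 from four-parameter fit of percent inhibition.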

WM3928 cells = assay: WM3928 Cell Proliferation Assay (1); format: cell-based
Procedure, shortened: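 IC50 was derived from resazurin fluorescence (ex 540, em 600 nm) after a 6–7 h dye incubation. Before that, cells had 67–72 h of compound exposure at 37 °C, 5% CO2.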

H2405 cells = assay: H2405 Cell Proliferation Assay (1); format: cell-based; settings: Homo sapiens, NCI-H2405
Procedure, shortened: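 Viability was read by resazurin reduction (ex 540 nm, em 600 nm; 5-6 h with 40 μL of 440 μM stock) after 67-72 h compound exposure at 37 °C.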

C-Raf kinase (SEQ. ID NO: 3), sequence (P04049 307-648 Y340D/Y341D): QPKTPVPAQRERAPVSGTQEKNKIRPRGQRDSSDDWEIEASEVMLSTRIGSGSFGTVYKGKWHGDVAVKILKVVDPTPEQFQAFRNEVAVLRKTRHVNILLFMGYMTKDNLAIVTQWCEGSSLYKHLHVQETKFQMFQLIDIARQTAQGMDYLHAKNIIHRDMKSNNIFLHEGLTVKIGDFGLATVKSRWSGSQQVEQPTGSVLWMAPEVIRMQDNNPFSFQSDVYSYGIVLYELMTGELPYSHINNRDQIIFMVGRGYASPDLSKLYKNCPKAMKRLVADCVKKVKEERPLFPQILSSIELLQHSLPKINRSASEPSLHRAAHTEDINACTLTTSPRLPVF
A-Raf kinase (SEQ. ID No: 1), sequence (P10398 other isoform, or with tags, fused parts or gaps Y301D (already in the parent)/Y302D (already in the parent)): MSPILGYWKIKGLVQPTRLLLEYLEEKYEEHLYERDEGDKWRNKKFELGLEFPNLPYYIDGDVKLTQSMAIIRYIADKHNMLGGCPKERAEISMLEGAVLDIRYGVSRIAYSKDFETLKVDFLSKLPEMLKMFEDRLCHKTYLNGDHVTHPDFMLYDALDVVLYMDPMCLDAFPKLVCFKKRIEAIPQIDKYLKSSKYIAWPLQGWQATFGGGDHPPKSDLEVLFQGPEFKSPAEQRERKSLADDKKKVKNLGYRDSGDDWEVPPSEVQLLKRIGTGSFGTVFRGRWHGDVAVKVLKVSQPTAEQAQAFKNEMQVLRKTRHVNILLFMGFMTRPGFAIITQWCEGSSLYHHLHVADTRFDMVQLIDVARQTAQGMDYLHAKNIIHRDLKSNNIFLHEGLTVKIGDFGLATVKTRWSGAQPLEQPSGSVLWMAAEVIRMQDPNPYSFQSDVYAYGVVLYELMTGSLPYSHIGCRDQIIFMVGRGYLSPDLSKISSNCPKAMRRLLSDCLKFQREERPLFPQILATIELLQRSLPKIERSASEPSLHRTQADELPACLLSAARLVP

Compound	IC50 [1] [nM]	IC50 [2] [nM]	IC50 (WM3928 cells) [nM]	IC50 (H2405 cells) [nM]
COC(=O)Nc1cc(-c2cccc(-c3cc(NC(=O)c4ccnc(C(C)(C)F)c4)cnc3C)c2)ncn1 [Example 404]	1000 to 10000	≤ 100	100 to 500	1000 to 10000
COC(=O)Nc1cc(-c2cncc(-c3cc(NC(=O)c4ccnc(C5(C#N)CC5)c4)ccc3C)c2)ncn1 [Example 405]	1000 to 10000	≤ 100	≤ 100	≤ 100
Cc1ncc(NC(=O)c2ccnc(C(C)(C)F)c2)cc1-c1cncc(-c2cc(NC(=O)C3CC3)ncn2)c1 [Example 406]	500 to 1000	≤ 100	≤ 100	≤ 100
Cc1ncc(NC(=O)c2ccnc(C(C)(C)C#N)c2)cc1-c1cccc(-c2cnc3ccccn23)c1 [Example 407]	1000 to 10000	100 to 500	1000 to 10000	500 to 1000
CNC(=O)c1cc(-c2cncc(-c3cc(NC(=O)c4ccnc(C(C)(C)F)c4)c(F)cc3C)c2)ccn1 [Example 408]	1000 to 10000	≤ 100	100 to 500	100 to 500
COC(=O)Nc1cc(-c2cnnc(-c3cc(NC(=O)c4cn(C(C)C)nn4)ccc3C)c2)ccn1 [Example 409]	1000 to 10000	100 to 500	1000 to 10000	1000 to 10000
Cc1ncc(NC(=O)c2ccnc(C(C)(C)C#N)c2)cc1-c1cncc(-c2cc(NC(=O)C3CC3)ncn2)c1 [Example 410]	1000 to 10000	≤ 100	≤ 100	100 to 500
Cc1ccc(NC(=O)c2ccnc(C(C)(C)F)c2)cc1-c1cncc(-c2cc(N)ncn2)c1 [Example 411]	1000 to 10000	≤ 100	≤ 100	100 to 500
Cc1ccc(NC(=O)c2cn(C(C)C)nn2)cc1-c1cncc(-c2cc(NC(=O)C3CC3)ncn2)c1 [Example 412]	100 to 500	≤ 100	≤ 100	≤ 100
CNC(=O)c1cc(-c2cncc(-c3cc(NC(=O)c4ccnc(C(C)(C)F)c4)ccc3C)c2)ccn1 [Example 413]	1000 to 10000	≤ 100	≤ 100	≤ 100
COC(=O)Nc1cc(-c2cncc(-c3cc(NC(=O)c4ccnc(C(C)(C)C#N)c4)ccc3C)c2)ncn1 [Example 414]	1000 to 10000	≤ 100	≤ 100	≤ 100
COC(=O)Nc1cc(-c2cccc(-c3cc(NC(=O)Cn4cc(C(C)C)nn4)cnc3C)c2)ccn1 [Example 415]	1000 to 10000	100 to 500	1000 to 10000	–
COC(=O)Nc1cc(-c2cc(-c3cc(NC(=O)c4ccnc(C(C)(C)F)c4)ccc3C)nc(C)n2)ccn1 [Example 416]	1000 to 10000	≤ 100	≤ 100	100 to 500
Cc1ccc(NC(=O)c2ccnc(C(C)(C)F)c2)cc1-c1cncc(-c2ccnc(NC(=O)C3CC3)c2)c1 [Example 417]	100 to 500	≤ 100	≤ 100	≤ 100
Cc1cc(F)c(NC(=O)c2ccnc(C(C)(C)C#N)c2)cc1-c1cncc(-c2ccnc(NC(=O)C3CC3)c2)c1 [Example 418]	500 to 1000	≤ 100	≤ 100	≤ 100
Cc1ccc(NC(=O)c2ccnc(C(C)(F)F)c2)cc1-c1cncc(-c2cc(NC(=O)C3CC3)ncn2)c1 [Example 419]	500 to 1000	≤ 100	≤ 100	≤ 100
Cc1ccc(NC(=O)c2ccnc(C(C)(C)C#N)c2)cc1-c1cncc(-c2cc(NC(=O)C(C)C)ncn2)c1 [Example 420]	1000 to 10000	≤ 100	≤ 100	≤ 100

Compound	IC50 [1] [nM]	IC50 [2] [nM]	IC50 (WM3928 cells) [nM]	IC50 (H2405 cells) [nM]
Cc1ccc(NC(=O)c2cc(C3CC3)on2)cc1-c1cncc(-c2cc(NC(=O)C3CC3)ncn2)c1 [Example 421]	1000 to 10000	≤ 100	≤ 100	≤ 100
Cc1ccc(NC(=O)c2ccnc(C(C)(C)C#N)c2)cc1-c1cncc(-c2cc(N)ncn2)c1 [Example 422]	1000 to 10000	≤ 100	100 to 500	100 to 500
Cc1cc(F)c(NC(=O)c2ccnc(C(C)(C)F)c2)cc1-c1cncc(-c2cc(NC(=O)C3CC3)ncn2)c1 [Example 423]	1000 to 10000	≤ 100	≤ 100	–
Cc1cc(F)c(NC(=O)c2ccnc(C(C)(C)C#N)c2)cc1-c1cncc(-c2cc(NC(=O)C3CC3)ncn2)c1 [Example 424]	500 to 1000	≤ 100	≤ 100	–
COC(=O)Nc1cc(-c2cncc(-c3cc(NC(=O)c4ccnc(C(C)(C)F)c4)ccc3C)c2)ncn1 [Example 425]	1000 to 10000	≤ 100	≤ 100	≤ 100
CNC(=O)c1cc(-c2nccc(-c3cc(NC(=O)c4ccnc(C(C)(C)F)c4)c(F)cc3C)n2)ccn1 [Example 427]	1000 to 10000	≤ 100	≤ 100	100 to 500
CNC(=O)c1cc(-c2cc(-c3cc(NC(=O)c4ccnc(C(C)(C)F)c4)ccc3C)nc(C)n2)ccn1 [Example 428]	1000 to 10000	100 to 500	100 to 500	100 to 500
Cc1ccc(NC(=O)c2ccnc(C(F)F)c2)cc1-c1cncc(-c2cc(NC(=O)C3CC3)ncn2)c1 [Example 429]	100 to 500	≤ 100	≤ 100	≤ 100
Cc1ccc(NC(=O)c2cnn(C3CC3)c2)cc1-c1cncc(-c2cc(NC(=O)C3CC3)ncn2)c1 [Example 430]	500 to 1000	≤ 100	≤ 100	100 to 500
Cc1ccc(NC(=O)c2cc(C(C)(C)C)on2)cc1-c1cncc(-c2cc(NC(=O)C3CC3)ncn2)c1 [Example 431]	100 to 500	≤ 100	≤ 100	≤ 100
Cc1ccc(NC(=O)c2ccnc(C(C)(C)F)c2)cc1-c1cncc(-c2ccnc3c2CC(=O)N3)c1 [Example 432]	1000 to 10000	≤ 100	100 to 500	–
Cc1ncc(NC(=O)c2ccnc(C(C)(C)F)c2)cc1-c1cncc(-c2ccnc(NC(=O)C3CC3)c2)c1 [Example 433]	1000 to 10000	≤ 100	≤ 100	–
Cc1ccc(NC(=O)c2ccnc(C(C)C)c2)cc1-c1cncc(-c2cc(NC(=O)C3CC3)ncn2)c1 [Example 434]	100 to 500	≤ 100	≤ 100	–
COC(=O)Nc1cc(-c2cncc(-c3cc(NC(=O)c4ccnc(C(C)(C)F)c4)ccc3C)c2)ccn1 [Example 435]	1000 to 10000	≤ 100	≤ 100	≤ 100
Cc1ccc(NC(=O)c2cc(C3CC3)n(C)n2)cc1-c1nccc(-c2ccnc(NC(=O)C3CC3)c2)n1 [Example 436]	500 to 1000	≤ 100	≤ 100	≤ 100
CNC(=O)c1cc(-c2cc(-c3cc(NC(=O)c4ccnc(C(C)(C)C#N)c4)ccc3OC)ccn2)ccn1 [Example 437]	1000 to 10000	≤ 100	500 to 1000	100 to 500
COc1ccc(NC(=O)c2ccnc(C(C)(C)C#N)c2)cc1-c1cccc(-c2cc(NC(=O)C3CC3)ncn2)c1 [Example 438]	1000 to 10000	≤ 100	≤ 100	100 to 500
